Assay results from PubChem BioAssay (NCI).
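A five-concentration, 48-hour dose response in 96-well plates underlies each endpoint, interpolated linearly between surrounding concentrations. TGI is the concentration that stops growth completely.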

test system: SNB-75 CNS; assay: inhibition of tumour cell growth, NCI panel, 48 h

SMILES | TGI [µM]
O=c1[nH]c(=O)n(C2OC(CO)C(O)C2O)cc1NN=NCc1ccccc1 (stereo not given) | > 100
CCCCC1=NNC(=O)C1 | > 100

test system: SW-620 colon; assay: inhibition of tumour cell growth, NCI panel, 48 h

SMILES | TGI [µM]
CC1(C)COC(c2cccnc2/C=N/O)=N1 | > 100
CC(C)C(=O)[C@@]1(C)SC[C@H]2CCN=C21 | > 100
O=C(NC(Cc1c[nH]c2ccccc12)C(=O)Nc1ccc(Br)cc1)OCc1ccccc1 (stereo not given) | 54.6
CCCCCCCCCC1(N=[N+]=[N-])C(=O)c2ccccc2N(C)C1=O (stereo not given) | > 100
CCOC(=O)C1(C#N)C(c2ccccc2)CC(O)(c2ccc(OC)cc2)C(C(=O)c2ccc(OC)cc2)C1c1ccccc1 (stereo not given) | > 100
COc1ccc(C2C(Cl)C(=O)N2n2cnc3ccccc3c2=O)cc1 (stereo not given) | > 100
Cc1cc(N)c(C)c2c1[nH]c1ccc(O)cc12 | > 100
CCOC(=O)C1=C(C)N(Cc2ccc(Cl)cc2Cl)C2(O)C=CC(=O)C3C(=O)N(c4ccccc4)C(=O)C132 (stereo not given) | 5.97
COC(=O)c1cc2c3c(ccc2[nH]1)N(C(=O)c1cc2cc(OC)c(OC)c(OC)c2[nH]1)CC3CCl (stereo not given) | > 100
CC(=O)c1cccc(NC(=O)C(=O)NNc2n[nH]c(=S)n2N)c1 | 22.5
COC(=O)c1ccc(C(=O)NC(Cc2ccc(Oc3cc(CC(NC(=O)c4ccccc4C(=O)OC)C(=O)OC)ccc3OC)cc2)C(=O)OC)cc1 (stereo not given) | > 100
Cc1cc2c(cc1Cl)SC(NS(=O)(=O)c1ccc(Cl)cc1)=NS2(=O)=O | > 100
COc1cc2cc3c4c(cc(OC)c(OC)c4c2cc1OC)CCN3C(=O)OCCN1CCNCC1 | 28.1
O=c1[nH]c2c(nc1NC13CC4CC(CC(C4)C1)C3)c(=O)oc1ccccc12 | > 100
COc1cc(C(Cc2ccccc2)NC(C)=O)oc(=O)c1 (stereo not given) | > 100
CS(=O)(=O)O[C@H]1CN2C[C@@H](O)[C@@H](O)[C@H]2[C@H]1CO | > 100
C=C(CCC/C(C)=C/C=C/[C@]1(C)CCCc2ccoc21)CC(=O)O | > 100
COC(=O)CCC1=CCC2(SC)C(=O)Nc3cccc1c32 (stereo not given) | > 100
CCCCc1c(N(C)C)c(OC(C)=O)c(-c2cn(C)c3ccccc23)oc1=O | > 100
CCCN=C(N)NC#N | 30.8
Nc1ccc2c(c1)N(C(=O)c1cc3cc(NC(=O)c4cc5ccccc5o4)ccc3[nH]1)CC2CCl (stereo not given) | 12.6
O=c1[nH]c(=O)n(C2OC(CO)C(O)C2O)cc1NN=NCc1ccccc1 (stereo not given) | > 67.8
CCCCC1=NNC(=O)C1 | > 100

test system: U251 CNS; assay: inhibition of tumour cell growth, NCI panel, 48 h

SMILES | TGI [µM]
CC1(C)COC(c2cccnc2/C=N/O)=N1 | > 100
O=C(NC(Cc1c[nH]c2ccccc12)C(=O)Nc1ccc(Br)cc1)OCc1ccccc1 (stereo not given) | 25.1
CCCCCCCCCC1(N=[N+]=[N-])C(=O)c2ccccc2N(C)C1=O (stereo not given) | 6.31
CCOC(=O)C1(C#N)C(c2ccccc2)CC(O)(c2ccc(OC)cc2)C(C(=O)c2ccc(OC)cc2)C1c1ccccc1 (stereo not given) | > 100
COc1ccc(C2C(Cl)C(=O)N2n2cnc3ccccc3c2=O)cc1 (stereo not given) | > 100
Cc1cc(N)c(C)c2c1[nH]c1ccc(O)cc12 | > 100
CCOC(=O)C1=C(C)N(Cc2ccc(Cl)cc2Cl)C2(O)C=CC(=O)C3C(=O)N(c4ccccc4)C(=O)C132 (stereo not given) | 3.8
COC(=O)c1cc2c3c(ccc2[nH]1)N(C(=O)c1cc2cc(OC)c(OC)c(OC)c2[nH]1)CC3CCl (stereo not given) | > 100
CC(=O)c1cccc(NC(=O)C(=O)NNc2n[nH]c(=S)n2N)c1 | 12
Cc1cc2c(cc1Cl)SC(NS(=O)(=O)c1ccc(Cl)cc1)=NS2(=O)=O | > 100
COc1cc2cc3c4c(cc(OC)c(OC)c4c2cc1OC)CCN3C(=O)OCCN1CCNCC1 | 28.9
O=c1[nH]c2c(nc1NC13CC4CC(CC(C4)C1)C3)c(=O)oc1ccccc12 | 33.1
COc1cc(C(Cc2ccccc2)NC(C)=O)oc(=O)c1 (stereo not given) | > 100
CS(=O)(=O)O[C@H]1CN2C[C@@H](O)[C@@H](O)[C@H]2[C@H]1CO | > 100
C=C(CCC/C(C)=C/C=C/[C@]1(C)CCCc2ccoc21)CC(=O)O | > 100
COC(=O)CCC1=CCC2(SC)C(=O)Nc3cccc1c32 (stereo not given) | > 100
CCCCc1c(N(C)C)c(OC(C)=O)c(-c2cn(C)c3ccccc23)oc1=O | 64
CCCN=C(N)NC#N | > 100
Nc1ccc2c(c1)N(C(=O)c1cc3cc(NC(=O)c4cc5ccccc5o4)ccc3[nH]1)CC2CCl (stereo not given) | 12
O=c1[nH]c(=O)n(C2OC(CO)C(O)C2O)cc1NN=NCc1ccccc1 (stereo not given) | > 100
CCCCC1=NNC(=O)C1 | > 100

test system: UACC-62 melanoma; assay: inhibition of tumour cell growth, NCI panel, 48 h

SMILES | TGI [µM]
CC1(C)COC(c2cccnc2/C=N/O)=N1 | > 100
CC(C)C(=O)[C@@]1(C)SC[C@H]2CCN=C21 | > 100
O=C(NC(Cc1c[nH]c2ccccc12)C(=O)Nc1ccc(Br)cc1)OCc1ccccc1 (stereo not given) | 22
CCCCCCCCCC1(N=[N+]=[N-])C(=O)c2ccccc2N(C)C1=O (stereo not given) | 80.5
CCOC(=O)C1(C#N)C(c2ccccc2)CC(O)(c2ccc(OC)cc2)C(C(=O)c2ccc(OC)cc2)C1c1ccccc1 (stereo not given) | > 100
COc1ccc(C2C(Cl)C(=O)N2n2cnc3ccccc3c2=O)cc1 (stereo not given) | > 100
CCOC(=O)C1=C(C)N(Cc2ccc(Cl)cc2Cl)C2(O)C=CC(=O)C3C(=O)N(c4ccccc4)C(=O)C132 (stereo not given) | 3.74
COC(=O)c1cc2c3c(ccc2[nH]1)N(C(=O)c1cc2cc(OC)c(OC)c(OC)c2[nH]1)CC3CCl (stereo not given) | > 100
CC(=O)c1cccc(NC(=O)C(=O)NNc2n[nH]c(=S)n2N)c1 | 3.72
Cc1cc2c(cc1Cl)SC(NS(=O)(=O)c1ccc(Cl)cc1)=NS2(=O)=O | > 100
COc1cc2cc3c4c(cc(OC)c(OC)c4c2cc1OC)CCN3C(=O)OCCN1CCNCC1 | 28.1
O=c1[nH]c2c(nc1NC13CC4CC(CC(C4)C1)C3)c(=O)oc1ccccc12 | > 100
COc1cc(C(Cc2ccccc2)NC(C)=O)oc(=O)c1 (stereo not given) | > 100
CS(=O)(=O)O[C@H]1CN2C[C@@H](O)[C@@H](O)[C@H]2[C@H]1CO | > 100
C=C(CCC/C(C)=C/C=C/[C@]1(C)CCCc2ccoc21)CC(=O)O | > 100
COC(=O)CCC1=CCC2(SC)C(=O)Nc3cccc1c32 (stereo not given) | > 100
CCCCc1c(N(C)C)c(OC(C)=O)c(-c2cn(C)c3ccccc23)oc1=O | 40.7
CCCN=C(N)NC#N | > 100
Nc1ccc2c(c1)N(C(=O)c1cc3cc(NC(=O)c4cc5ccccc5o4)ccc3[nH]1)CC2CCl (stereo not given) | 0.794
O=c1[nH]c(=O)n(C2OC(CO)C(O)C2O)cc1NN=NCc1ccccc1 (stereo not given) | > 100
CCCCC1=NNC(=O)C1 | > 100

test system: UO-31 renal; assay: inhibition of tumour cell growth, NCI panel, 48 h

SMILES | TGI [µM]
CC1(C)COC(c2cccnc2/C=N/O)=N1 | > 100
CC(C)C(=O)[C@@]1(C)SC[C@H]2CCN=C21 | > 100
O=C(NC(Cc1c[nH]c2ccccc12)C(=O)Nc1ccc(Br)cc1)OCc1ccccc1 (stereo not given) | 27.4
CCCCCCCCCC1(N=[N+]=[N-])C(=O)c2ccccc2N(C)C1=O (stereo not given) | > 100
CCOC(=O)C1(C#N)C(c2ccccc2)CC(O)(c2ccc(OC)cc2)C(C(=O)c2ccc(OC)cc2)C1c1ccccc1 (stereo not given) | > 100
COc1ccc(C2C(Cl)C(=O)N2n2cnc3ccccc3c2=O)cc1 (stereo not given) | > 100
Cc1cc(N)c(C)c2c1[nH]c1ccc(O)cc12 | > 100
CCOC(=O)C1=C(C)N(Cc2ccc(Cl)cc2Cl)C2(O)C=CC(=O)C3C(=O)N(c4ccccc4)C(=O)C132 (stereo not given) | 5
COC(=O)c1cc2c3c(ccc2[nH]1)N(C(=O)c1cc2cc(OC)c(OC)c(OC)c2[nH]1)CC3CCl (stereo not given) | > 100
CC(=O)c1cccc(NC(=O)C(=O)NNc2n[nH]c(=S)n2N)c1 | 22.6
COC(=O)c1ccc(C(=O)NC(Cc2ccc(Oc3cc(CC(NC(=O)c4ccccc4C(=O)OC)C(=O)OC)ccc3OC)cc2)C(=O)OC)cc1 (stereo not given) | > 100
Cc1cc2c(cc1Cl)SC(NS(=O)(=O)c1ccc(Cl)cc1)=NS2(=O)=O | > 100
COc1cc2cc3c4c(cc(OC)c(OC)c4c2cc1OC)CCN3C(=O)OCCN1CCNCC1 | 28.1
O=c1[nH]c2c(nc1NC13CC4CC(CC(C4)C1)C3)c(=O)oc1ccccc12 | > 100
COc1cc(C(Cc2ccccc2)NC(C)=O)oc(=O)c1 (stereo not given) | > 100
CS(=O)(=O)O[C@H]1CN2C[C@@H](O)[C@@H](O)[C@H]2[C@H]1CO | > 100
C=C(CCC/C(C)=C/C=C/[C@]1(C)CCCc2ccoc21)CC(=O)O | > 100
COC(=O)CCC1=CCC2(SC)C(=O)Nc3cccc1c32 (stereo not given) | > 100
CCCCc1c(N(C)C)c(OC(C)=O)c(-c2cn(C)c3ccccc23)oc1=O | 53
CCCN=C(N)NC#N | > 100
Nc1ccc2c(c1)N(C(=O)c1cc3cc(NC(=O)c4cc5ccccc5o4)ccc3[nH]1)CC2CCl (stereo not given) | 13.1
O=c1[nH]c(=O)n(C2OC(CO)C(O)C2O)cc1NN=NCc1ccccc1 (stereo not given) | > 100
CCCCC1=NNC(=O)C1 | > 100
